Source: patent publication US5026728A, “Treatment of arthritis and inflammation using N,N-dimethylglycine” (Foodscience Corporation, priority 1989, dated 1991)
Values joined by “and” are separate entries in the source; they are usually repeats but may differ in a detail not shown here. Equal entries are not always repeated. “Also recorded” adds a separate entry of the source. Structures can show the parent of a compound that is named as a salt. Where two headings read alike, the source gives them in different places.

Tests used:
[1] = tested on: chronic obstructive pulmonary disease (heaves); assay: Treatment of chronic obstructive pulmonary disease in horses (Example 5); format: in vivo, horses (standardbred)
Method: Three standardbred horses, ages 3 to 7 years, were diagnosed as having chronic obstructive pulmonary disease, also known as equine asthma or the heaves. Clinical signs included frequent coughing, nasal discharge, increased respiratory rate and wheezing in the chest area. The horses were treated orally with 1.5 g of DMG hydrochloride twice daily for ten days.

[2] = tested on: gouty arthritis; assay: Treatment of gouty arthritis in humans (Example 4); format: in vivo, human; conditions: 250 mg t.i.d.
Method: DMG was administered to two patients suffering from gouty arthritis, at a dosage of 250 mg t.i.d. over a three week period.

[3] = tested on: B cells; conditions: research on humans; cited from earlier work
[4] = tested on: B cells; conditions: early research; cited from earlier work
[5] = tested on: Type II collagen; assay: ELISA immunoassay of antibody to Type II collagen in sera of collagen-immunized rats; format: in vivo, Female Wistar outbred rats
Method: (§1) Female Wistar outbred rats (age 10-12 weeks) were obtained from Charles River Breeding Laboratories Inc., Wilmington, Mass.) housed in metal cages and fed standard rodent chow with water ad libitum.
(§2) Immunization was performed using the method outlined by Stuart et al. (Stuart et al., supra). Type II collagen was dissolved in 0.01N acetic acid at a concentration of 2 mg/ml stirring overnight at 4° C. An emulsion was made using incomplete Freund's adjuvant (Difco) and each collagen solution at a ratio of 6:4. Eighteen Wistar rats were given 0.1 ml of a cold emulsion of collagen II by intradermal injection of the left hind footpad and booster injections in the tail at one week and again on day 36.
(§3) Dimethylglycine mixed in distilled water was administered intraperitoneally to half of the rats in the study at a dosage rate of 100 mg/kg body weight per day, beginning on the day of collagen immunization. Control rats were injected with only distilled water. Rats were sacrificed at the time of the occurrence of arthritis and were bled by cardiac puncture. Rats surviving at day 30 were bled by the tail vein and were bled again at the end of the study (day 51).
Sera were obtained by cardiac puncture on the day arthritis developed or at the end of the study (day 51). An enzyme-linked immunoassay (ELISA) technique adapted from the methods described by Stuart et al. supra was used to measure antibody titres.
Flat bottom 96 well microtitre plates (Corning) were coated with collagen as follows: Collagen was dissolved in 0.4 ionic strength phosphate buffer, pH 7.6 by stirring overnight at 4° C. The collagen concentration was adjusted to 5 μg/ml determined by the Lowry method (Lowry, O. et al., J. Biol. Chem. 193, 265 [1951]). Each well received 100 μl of collagen solution and the plates were incubated at 4° C. overnight. The coating solution was removed by inverting the plate and sharply snapping the wrist to remove remaining droplets. To reduce nonspecific absorption a blocker of phosphate-buffered saline (PBS) (pH 7.4) containing 0.5% ovalbumin (Grade V), Sigma Chemical Co., St. Louis, Mo.) was added and incubated for 1 hr. The plates were washed with PBS-Tween (containing […]) three times and used immediately. The sera were diluted with PBS-Tween containing 0.5% ovalbumin and aliquots of 100 μl were added to the Type II collagen-coatad microtitre plates. The plates were incubated at 4° C. overnight and washed three times with PBS-Tween. One hundred μl of a 1:3000 dilution of rabbit anti-rat IgG peroxidase conjugate (Sigma) was added and incubated for 4 hr at room temperature. Excess conjugate was removed by washing three times with PBS-Tween and the amount of conjugate bound was determined by adding orthophenylenediamine (OPD) (Sigma Chemical Co.) as a substrate. The substrate was prepared by adding 40 mg of OPD to […] of 0.224M citric acid 0.05M dibasic sodium phosphate pH 5.0 and adding 400 μl of 3% hydrogen peroxide. After incubation with the substrate for 20 min the microtitre plates were read for absorbance at 490 nm using a Mini Reader II (Dynatech).

[6] = cited from earlier work
[7] = animals under extreme stress; cited from earlier work
[8] = tested on: hybridoma antibody producing cells; conditions: in vitro cell cultures; cited from earlier work
[9] = tested on: T cells and macrophages; conditions: early research; cited from earlier work
[10] = tested on: lymphocytes; conditions: sickle cell disease and diabetes patients; three lectins; cited from earlier work
[11] = tested on: interferon; conditions: cited from earlier work
[12] = tested on: lymphocytes; conditions: lymphocytes from DMG-fed animals; cited from earlier work
[13] = tested on: arthritis (Type II collagen-induced); assay: Type II collagen-induced arthritis in rats, arthritic swelling of hindpaws (Example 1); format: in vivo, Female Wistar outbred rats; parameters: key to rats which showed arthritic swelling (mark): *: Indicates rats which showed arthritic swelling; conditions: 100 mg/kg/day i.p.
Method: as §1, §2, §3
Animals in both groups were observed daily for the onset of arthritis. Swelling of the hindpaws was quantitated by measuring the thickness of the ankle from medial to lateral malleolus with a caliper (as done by Trentham et al. supra).

[14] = high-dose rats; cited from earlier work
[15] = tested on: rheumatoid arthritis; assay: Treatment of rheumatoid arthritis in humans (Example 3); format: in vivo, human
Method: Three patients, diagnosed as having rheumatoid arthritis in one or both knees with symptoms of acute pain, inflammation, joint tenderness and morning stiffness, were treated orally with 500 mg of DMG taken four times daily. The test period lasted for six weeks, during which time no other antiinflammatory drugs were taken.

[16] = tested on: T cells and macrophages; conditions: research on humans; cited from earlier work
[17] = human tests; cited from earlier work
[18] = greyhounds given DMG; cited from earlier work
[19] = tested on: interferon; conditions: cited from earlier work; remark: listed apart in the source
[20] = tested on: arthritis (Type II collagen-induced); assay: Prevention of arthritis in collagen-injected rats (Example 2); format: in vivo
Method: Eighteen rats were divided into two groups. Nine animals were injected i.p. with DMG (100 mg/kg body weight) daily, starting on day 14 prior to administration of collagen II, and continuing for 30 days after collagen II injection or until severe arthritic lesions were observed, if earlier. The remaining nine rats were similarly injected i.p. with sterile water. In this experiment, as compared with Example 1, the source of the collagen II was changed from a commercial preparation (Chemicon Corp., Temecula, Calif.) to a fresh preparation prepared by the process according to Trentham et al., 1977, supra.

[21] = tested on: lactic acid; conditions: intravenous, severe surgical stress; cited from earlier work
[22] = after 5 days, 1.5 g orally twice daily
[23] = antibody titre, individual rat, DMG 100 mg/kg/day i.p., absorbance at 490 nm
[24] = mean, DMG-treated rats, 100 mg/kg/day i.p.

CN(C)CC(=O)O [DMG-HCl]
breathing and nasal discharge [1, 22]: improved breathing and less nasal discharge | symptomatic relief [1, 22]: All three horses showed symptomatic relief after 5 days | clearing of air passages ([1]; end of 10 days, 1.5 g orally twice daily): the air passages of all three horses had cleared

CN(C)CC(=O)O [DMG, N,N-dimethylglycine]
time after which benefits were noted [2]: 7 to 10 days | time to maximal benefits [2]: maximal after two weeks | pain, redness and inflammation ([2]; three weeks): Less pain, redness and inflammation were noted | antibody responses of B cells [3]: much higher antibody responses | antibody responses of B cells (humoral branch) [4]: much higher antibody responses | antibody titres compared with control animals ([5]; 100 mg/kg/day i.p., rats immunized with Type II collagen): developed higher antibody titres than control animals | ELISA Reading, serum from day 17 [5, 23]: .78 | ELISA Reading, serum from day 30 [5, 23]: .47 and .00 and .28 and .32 and .33 and .20 and .17 and .48 | ELISA Reading, serum from day 51 [5, 23]: .60 and .88 and .18 and .35 and .90 and .56 and .64 | Mean ELISA Reading, serum from day 17 [5, 24]: .78 | Mean ELISA Reading, serum from day 30 [5, 24]: .28 | Mean ELISA Reading, serum from day 51 [5, 24]: .54 | blood lactic acid level following training ([6]; DMG in the diet): lower blood lactic acid level following training | appetite, attitude and recovery from racing and training ([6]; trainers' observation, versus controls): more aggressive, to have better appetites and attitudes and to recover faster from racing and training than the controls | lactic acid levels [7]: decrease lactic acid levels | oxygen utilization [7]: increase oxygen utilization | production of antibodies [8]: increases the production of antibodies | activity of T cells and macrophages (cellular immunity branch) [9]: potentiates the activity of T cells and macrophages | blast transformation activity of lymphocytes [10]: approximately doubled | interferon production [11]: effective in doubling interferon production; also recorded: will increase interferon production | effect on inflammatory condition, heaves in horses ([1]; summary statement in description): demonstrated to reduce the inflammatory condition and to be an effective therapy for heaves in horses | lymphocyte activation / proliferation [12]: can stimulate the cellular immune system by lymphatic proliferation | arthritic swellings of the hindpaws compared with non-DMG-treated group ([13]; beginning on the day of collagen immunization): did not develop to the same extent the arthritic swellings of the hindpaws | rats which showed arthritic swelling (mark) ([13]; individual rat): * | adaptation to hypoxia [14]: better adaptation to hypoxia | fatigue and night pain ([15]; 500 mg orally four times daily): All three patients reported less fatigue and less night pain | improvement in inflammation, pain and morning stiffness ([15]; after 21 days, 500 mg orally four times daily): two patients reported significant improvement in reduction of inflammation, pain and morning stiffness; also recorded: the third patient reported a lesser improvement | additional improvement ([15]; last three weeks of therapy (six weeks)): Additional improvement was noted in all three patients | activity of T cells and macrophages [16]: enhances the activity of T cells and macrophages | exhaustion time [17]: increase in exhaustion time | immune response (antibody production and lymphocyte generation) [17]: enhancement of the body's immune response | racing performance [18]: improvement in racing performance | recovery after races [18]: better recovery after races with less fatigue or muscle stiffness | interferon level ([19]; primary response, DMG-fed, none detected in immunized controls): high levels of interferon was present | interferon level ([19]; secondary response): Interferon was not present | animals developing characteristic inflammation and swelling, of nine ([20]; 100 mg/kg i.p. daily from day 14 before collagen II, all control animals developed arthritis): only two developed the characteristic inflammation and swelling to any extent | development of inflammation and swelling associated with Type II collagen-induced arthritis ([20]; 100 mg/kg/day, starting on day 14 prior to injection): either does not develop to the same extent, or does not develop at all | lactic acid production [21]: decreased lactic acid production
